# Columns and labels:
# Experiment in all cases: Test D controlled growth environment herbicide test, pre- and postemergence
# Format in all cases: in vivo
# [1] = test system: bluegrass (annual bluegrass, Poa annua)
# Procedure, shortened: (§1)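 Pre-emergence: seeds sown in silt loam soil were sprayed with compound in a non-phytotoxic solvent mix containing surfactant. Post-emergence: plants at 2 to 18 cm (1- to 4-leaf stage) in peat moss/vermiculite medium got the same formulation. Visual 0–100 rating versus controls after 14 to 21 d.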
# [2] = test system: wheat, winter (winter wheat, Triticum aestivum)
# Procedure, shortened: as §1
# [3] = test system: pigweed (Amaranthus retroflexus)
# Procedure, shortened: as §1
# [4] = test system: buckwheat, wild (wild buckwheat, Polygonum convolvulus)
# Procedure, shortened: as §1
# [5] = test system: Russian thistle (Salsola kali)
# Procedure, shortened: as §1
# [6] = test system: ryegrass, Italian (Italian ryegrass, Lolium multiflorum)
# Procedure, shortened: as §1
# [7] = test system: canarygrass (Phalaris minor)
# Procedure, shortened: as §1
# [8] = test system: field poppy (Papaver rhoeas)
# Procedure, shortened: as §1
# [9] = test system: blackgrass (Alopecurus myosuroides)
# Procedure, shortened: as §1
# [10] = test system: chickweed (common chickweed, Stellaria media)
# Procedure, shortened: as §1
# [11] = test system: galium (catchweed bedstraw, Galium aparine)
# Procedure, shortened: as §1
# kochia (Kochia scoparia) = test system: kochia (Kochia scoparia)
# Procedure, shortened: as §1
# [12] = test system: foxtail, green (green foxtail, Setaria viridis)
# Procedure, shortened: as §1
# [13] = Postemergence, 31 g ai/ha, scale 0 to 100 (0 no effect, 100 complete control)
# [14] = Postemergence, 125 g ai/ha, visual rating on scale 0 (no effect) to 100 (complete control), 14 to 21 d
# [15] = Postemergence, 250 g ai/ha, scale 0 to 100 (0 no effect, 100 complete control)
# [16] = Preemergence, 62 g ai/ha, scale 0 to 100 (0 no effect, 100 complete control)
# [17] = Preemergence, 125 g ai/ha, scale 0 to 100 (0 no effect, 100 complete control)
# [18] = Preemergence, 250 g ai/ha, scale 0 to 100 (0 no effect, 100 complete control)
# [19] = postemergence, 62 g ai/ha, scale 0 to 100, 0 no effect, 100 complete control
compound,measurement,setting,value
CC(=O)Oc1c(C)nn(C)c(=O)c1-c1c(C)cc(C)c2ccccc12 [Compound 153],Bluegrass plant response rating,[1]; [13],15
same,"Plant response rating, Bluegrass",[1]; [14],30
same,"Plant response rating, Bluegrass",[1]; [15],40
same,"Plant response rating (scale of 0 to 100), Bluegrass","[1]; Preemergence, 31 g ai/ha",70
same,"Plant response rating, Bluegrass",[1]; [16],75
same,"Plant response rating, Bluegrass",[1]; [17],75
same,"Plant response rating, Bluegrass",[1]; [18],75
same,"Plant response rating, Bluegrass",[1]; [19],15
same,"Wheat, Winter plant response rating",[2]; [13],10
same,"Plant response rating, Wheat, Winter",[2]; [14],25
same,"Plant response rating, Wheat, Winter",[2]; [15],35
same,"Plant response rating (scale of 0 to 100), Wheat, Winter","[2]; Preemergence, 31 g ai/ha",5
same,"Plant response rating (scale of 0 to 100), Wheat, Winter","[2]; Preemergence, 62 g ai/ha",20
same,"Plant response rating, Wheat, Winter",[2]; [17],45
same,"Plant response rating, Wheat, Winter",[2]; [18],50
same,"Plant response rating, Wheat, Winter",[2]; [19],15
same,Pigweed plant response rating,[3]; [13],80
same,"Plant response rating, Pigweed",[3]; [14],80
same,"Plant response rating, Pigweed",[3]; [15],85
same,"Plant response rating (scale of 0 to 100), Pigweed","[3]; Preemergence, 31 g ai/ha",100
same,"Plant response rating (scale of 0 to 100), Pigweed","[3]; Preemergence, 62 g ai/ha",100
same,"Plant response rating, Pigweed",[3]; [17],100
same,"Plant response rating, Pigweed",[3]; [18],100
same,"Plant response rating, Pigweed",[3]; [19],75
same,"Buckwheat, Wild plant response rating",[4]; [13],95
same,"Plant response rating, Buckwheat, Wild",[4]; [14],100
same,"Plant response rating, Buckwheat, Wild",[4]; [15],100
same,"Plant response rating (scale of 0 to 100), Buckwheat, Wild","[4]; Preemergence, 31 g ai/ha",40
same,"Plant response rating, Buckwheat, Wild",[4]; [16],60
same,"Plant response rating, Buckwheat, Wild",[4]; [17],85
same,"Plant response rating, Buckwheat, Wild",[4]; [18],85
same,"Plant response rating, Buckwheat, Wild",[4]; [19],95
same,Russian Thistle plant response rating,[5]; [13],25
same,"Plant response rating, Russian Thistle",[5]; [14],45
same,"Plant response rating, Russian Thistle",[5]; [15],55
same,"Plant response rating (scale of 0 to 100), Russian Thistle","[5]; Preemergence, 31 g ai/ha",0
same,"Plant response rating (scale of 0 to 100), Russian Thistle","[5]; Preemergence, 62 g ai/ha",15
same,"Plant response rating, Russian Thistle",[5]; [17],60
same,"Plant response rating, Russian Thistle",[5]; [18],100
same,"Plant response rating, Russian Thistle",[5]; [19],20
same,"Ryegrass, Italian plant response rating",[6]; [13],80
same,"Plant response rating, Ryegrass, Italian",[6]; [14],90
same,"Plant response rating, Ryegrass, Italian",[6]; [15],90
same,"Plant response rating (scale of 0 to 100), Ryegrass, Italian","[6]; Preemergence, 31 g ai/ha",100
same,"Plant response rating (scale of 0 to 100), Ryegrass, Italian","[6]; Preemergence, 62 g ai/ha",100
same,"Plant response rating, Ryegrass, Italian",[6]; [17],100
same,"Plant response rating, Ryegrass, Italian",[6]; [18],100
same,"Plant response rating, Ryegrass, Italian",[6]; [19],90
same,Canarygrass plant response rating,[7]; [13],75
same,"Plant response rating, Canarygrass",[7]; [14],80
same,"Plant response rating, Canarygrass",[7]; [15],85
same,"Plant response rating (scale of 0 to 100), Canarygrass","[7]; Preemergence, 31 g ai/ha",85
same,"Plant response rating (scale of 0 to 100), Canarygrass","[7]; Preemergence, 62 g ai/ha",90
same,"Plant response rating, Canarygrass",[7]; [17],95
same,"Plant response rating, Canarygrass",[7]; [18],100
same,"Plant response rating, Canarygrass",[7]; [19],75
same,Field Poppy plant response rating,[8]; [13],75
same,"Plant response rating, Field Poppy",[8]; [14],100
same,"Plant response rating, Field Poppy",[8]; [15],100
same,"Plant response rating (scale of 0 to 100), Field Poppy","[8]; Preemergence, 31 g ai/ha",100
same,"Plant response rating (scale of 0 to 100), Field Poppy","[8]; Preemergence, 62 g ai/ha",100
same,"Plant response rating, Field Poppy",[8]; [17],100
same,"Plant response rating, Field Poppy",[8]; [18],100
same,"Plant response rating, Field Poppy",[8]; [19],95
same,Blackgrass plant response rating,[9]; [13],65
same,"Plant response rating, Blackgrass",[9]; [14],75
same,"Plant response rating, Blackgrass",[9]; [15],80
same,"Plant response rating (scale of 0 to 100), Blackgrass","[9]; Preemergence, 31 g ai/ha",75
same,"Plant response rating, Blackgrass",[9]; [16],80
same,"Plant response rating, Blackgrass",[9]; [17],85
same,"Plant response rating, Blackgrass",[9]; [18],95
same,"Plant response rating, Blackgrass",[9]; [19],70
same,Chickweed plant response rating,[10]; [13],80
same,"Plant response rating, Chickweed",[10]; [14],85
same,"Plant response rating, Chickweed",[10]; [15],100
same,"Plant response rating (scale of 0 to 100), Chickweed","[10]; Preemergence, 31 g ai/ha",98
same,"Plant response rating (scale of 0 to 100), Chickweed","[10]; Preemergence, 62 g ai/ha",100
same,"Plant response rating, Chickweed",[10]; [17],100
same,"Plant response rating, Chickweed",[10]; [18],100
same,"Plant response rating, Chickweed",[10]; [19],85
same,Galium plant response rating,[11]; [13],100
same,"Plant response rating, Galium",[11]; [14],100
same,"Plant response rating, Galium",[11]; [15],100
same,"Plant response rating (scale of 0 to 100), Galium","[11]; Preemergence, 31 g ai/ha",85
same,"Plant response rating (scale of 0 to 100), Galium","[11]; Preemergence, 62 g ai/ha",95
same,"Plant response rating, Galium",[11]; [17],95
same,"Plant response rating, Galium",[11]; [18],98
same,"Plant response rating, Galium",[11]; [19],100
same,Kochia plant response rating,kochia (Kochia scoparia); [13],20
same,"Plant response rating, Kochia",kochia (Kochia scoparia); [14],30
same,"Plant response rating, Kochia",kochia (Kochia scoparia); [15],35
same,"Plant response rating (scale of 0 to 100), Kochia","kochia (Kochia scoparia); Preemergence, 31 g ai/ha",20
same,"Plant response rating (scale of 0 to 100), Kochia","kochia (Kochia scoparia); Preemergence, 62 g ai/ha",50
same,"Plant response rating, Kochia",kochia (Kochia scoparia); [17],25
same,"Plant response rating, Kochia",kochia (Kochia scoparia); [18],70
same,"Plant response rating, Kochia",kochia (Kochia scoparia); [19],15
same,"Foxtail, Green plant response rating",[12]; [13],80
same,"Plant response rating, Foxtail, Green",[12]; [14],85
same,"Plant response rating, Foxtail, Green",[12]; [15],85
same,"Plant response rating (scale of 0 to 100), Foxtail, Green","[12]; Preemergence, 31 g ai/ha",75
same,"Plant response rating (scale of 0 to 100), Foxtail, Green","[12]; Preemergence, 62 g ai/ha",75
same,"Plant response rating, Foxtail, Green",[12]; [17],100
same,"Plant response rating, Foxtail, Green",[12]; [18],100
same,"Plant response rating, Foxtail, Green",[12]; [19],80

# Source: patent US10597388B2, “Pyridazinone herbicides” (FMC CORPORATION, priority 2014, dated 2020)
